# Legend:
# Test in all cases: In vitro fungal growth on inoculated agar plates, benzoxaborole and CO2 chamber treatment
# Type in all cases: cell-based
# [1] = tested on: Mucor piriformis (MUCOPI)
# Text: (§1) The following experiments were used to determine synergy between benzoxaborole Compounds A, B, and/or C and preservative gases, such as carbon dioxide (CO2) and sulfur dioxide (SO2). Specific rates or any other unique conditions are noted within the corresponding results tables. Each experiment comprised an air-tight 36 liter (L) chamber (Fisher Scientific, P/N: 08-642-23C), fitted with a bulkhead septum port (Swagelok, P/N: SS-400-61, Solon, OH) used for treatment delivery, as well as for monitoring (using needle extraction) carbon dioxide (CO2), sulfur dioxide (SO2), oxygen (O2) or other headspace samples. A variable speed fan (Thermaltake, Mobile Fan II, P/N: A1888, Taipei City, Taiwan) set to low was also used to circulate the headspace atmosphere.
# (§2) In vitro and in vivo experiments were performed concurrently in triple replicates (i.e., triplicate) unless otherwise noted. For in vitro experiments, a single 6-well microtiter plate or three, 10-cm petri plates each containing half strength Potato Dextrose Agar were prepared. Each well or plate was inoculated with 1 microliter (μL) of 1×10^5 spores/ml of the appropriate pathogenic spore suspension (e.g., Botrytis cinerea, BOTRCI; Penicillium expansum, PENIEX; Mucor piriformis, MUCOPI; Fusarium sambucinum FUSASA; or Aspergillus brasiliensis, ASPEBR). The inoculated microtiter or petri plates were then sealed with a breathable film (AeraSeal; P/N: B-100, Excel Scientific, Victorville, CA).
# (§3) For treatment, the inoculated agar plates and clamshells containing fruits (e.g., strawberries and grapes) were placed inside a 36 L experimental chamber unit, which was then sealed prior to commencement of compound treatments. The chamber remained sealed throughout the duration of the experiment except for addition of treatment to the chamber, and post-treatment ventilation.
# (§4) Benzoxaborole Compound A or Compound B was dissolved in acetone and dispensed onto a 60 mm Whatman #1 filter paper disk using a pipette. The acetone was permitted to evaporate for five minutes before the disk was placed on a watch glass in each chamber.
# (§5) A 12% CO2 headspace treatment was then established in the chamber by permitting 10 grams (g) of crushed dry ice placed in a weigh boat in the chamber to evaporate in the sealed chamber. However, the bulkhead port of the chamber was loosened to permit the release of internal pressure. Optionally, a fan was used during the initial hours of treatment (i.e., up to about 6 hours of treatment) to ensure uniform treatment exposure of fruits and plates.
# (§6) Untreated controls and CO2 treated chambers contained an acetone-treated disk with similar evaporation for five minutes. CO2 and O2 levels in the chamber were monitored using a handheld gas detector (Dansensor Checkpoint II; P/N 600111, Ringsted, Denmark). Temperature and relative humidity were also monitored within the chamber using data loggers (Onset HOBO; P/N U12-013, Bourne, MA).
# (§7) The chamber for all in vitro and in vivo experiments was held at room temperature (i.e., from about 21° C. to about 23° C.) typically for about 3.5 days (i.e., about 84 hours) of treatment exposure. Chambers were then vented. After an additional 2-3 days with the chamber at room temperature, post-treatment radial growth (in mm) of each in vitro pathogen (see Examples 1-7, Tables 1-7) was measured on the inoculated plates using electronic calipers (Mitutoyo, P/N: CD-6-CX, Aurora, IL). In addition, the point of inoculation on fruits was assessed for indication of in vivo disease incidence (e.g., yes or no) and severity of disease incidence (see Examples 8-16, Tables 8-16). Disease severity was rated on a scale ranging from 0 to 4, where “0” indicated no disease severity, “1” indicated minimal disease severity, “2” indicated medium disease severity, “3” indicated high disease severity, and “4” indicated exceptionally high disease severity. […]
# [2] = tested on: Penicillium expansum (PENIEX)
# Text: as §1, §2, §3, §4, §5, §6, §7
# [3] = tested on: Fusarium sambucinum (FUSASA)
# Text: as §1, §2, §3, §4, §5, §6, §7
# [4] = Table 5, compound 0.14 mg/L + 12% CO2, Colby equation E=x+y−x*y/100
# [5] = Table 5, compound 0.14 mg/L + 12% CO2, evaluated 2 days after treatment, 6-well plate, fan first 6 hours, >90% R.H.
# [6] = Table 5, compound alone 0.14 mg/L, evaluated 2 days after treatment, 6-well plate, fan first 6 hours, >90% R.H.
smiles,measurement,setting,value
OB1OCc2cc(F)ccc21 [Compound A],Colby Calculation,"[1]; Table 3, compound 0.14 mg/L + 12% CO2, Colby equation E=x+y−x*y/100",189.0
same,"Growth (diameter, mm) Cmpd + 12% CO2","[1]; Table 3, compound 0.14 mg/L + 12% CO2, evaluated 2 days after treatment, 6-well microtiter plate, fan first 6 hours, >90% R.H.",11.0 mm
same,"Growth (diameter, mm) Cmpd","[1]; Table 3, compound alone 0.14 mg/L, evaluated 2 days after treatment, 6-well microtiter plate, fan first 6 hours, >90% R.H.",22.3 mm
same,Colby Calculation,"[2]; Table 1, compound 0.14 mg/L + 12% CO2, Colby equation E=x+y−x*y/100",225.0
same,"Growth (diameter, mm) Cmpd + 12% CO2","[2]; Table 1, compound 0.14 mg/L + 12% CO2, evaluated 2 days after treatment completion, 6-well microtiter plate, 4 replicates, fan first 6 hours",3.3 mm
same,"Growth (diameter, mm) Cmpd","[2]; Table 1, compound alone 0.14 mg/L, evaluated 2 days after treatment completion, 6-well microtiter plate, 4 replicates, fan first 6 hours",17.0 mm
same,Colby Calculation,"[2]; Table 2, compound 0.14 mg/L + 12% CO2, Colby equation E=x+y−x*y/100",119.7
same,"Growth (diameter, mm) Cmpd + 12% CO2","[2]; Table 2, compound 0.14 mg/L + 12% CO2, evaluated 2 days after treatment, 6-well microtiter plate, fan first 6 hours, >90% R.H.",5.2 mm
same,"Growth (diameter, mm) Cmpd","[2]; Table 2, compound alone 0.14 mg/L, evaluated 2 days after treatment, 6-well microtiter plate, fan first 6 hours, >90% R.H.",9.7 mm
same,Colby Calculation,"[2]; Table 4, compound 0.14 mg/L + 12% CO2, Colby equation E=x+y−x*y/100",124.4
same,"Growth (diameter, mm) Cmpd + 12% CO2","[2]; Table 4, compound 0.14 mg/L + 12% CO2, evaluated 2 days after treatment completion, 6-well microtiter plate, fan first 6 hours",0.5 mm
same,"Growth (diameter, mm) Cmpd","[2]; Table 4, compound alone 0.14 mg/L, evaluated 2 days after treatment completion, 6-well microtiter plate, fan first 6 hours",6.4 mm
same,Colby Calculation,[2]; [4],102.5
same,"Growth (diameter, mm) Cmpd + 12% CO2",[2]; [5],8.6 mm
same,"Growth (diameter, mm) Cmpd",[2]; [6],10.2 mm
same,Colby Calculation,"[2]; Table 7, compound 0.035 mg/L + 12% CO2, Colby equation E=x+y−x*y/100",114.7
same,"Growth (diameter, mm) Cmpd + 12% CO2","[2]; Table 7, compound 0.035 mg/L + 12% CO2, evaluated 3 days after treatment, 10 cm Petri plates, fan continuous",4.7 mm
same,"Growth (diameter, mm) Cmpd","[2]; Table 7, compound alone 0.035 mg/L, evaluated 3 days after treatment, 10 cm Petri plates, fan continuous",10.6 mm
same,Colby Calculation,[3]; [4],104.0
same,"Growth (diameter, mm) Cmpd + 12% CO2",[3]; [5],3.8 mm
same,"Growth (diameter, mm) Cmpd",[3]; [6],5.0 mm
